From US20240270762A1, “PENICILLIN-BINDING PROTEIN INHIBITORS” (priority 2021, published 2024)

Assays:
B. pseudomallei Bp82 = test: microbe, parasite or virus in culture; format: cell-based; details: Burkholderia pseudomallei, BP82, read-out: Minimum inhibitory concentration, B. pseudomallei Bp82
A. baumannii PBP1a = target: T1, A. baumannii PBP1a (Acinetobacter baumannii, UniProt A0ABX6CK30); test: Bocillin-FL competition binding via gel filtration, A. baumannii PBP1a; details: competition binding assay using Bocillin-FL via gel filtration; read-out: A. baumannii PBP1a Potency
T1 sequence (A0ABX6CK30 1-851): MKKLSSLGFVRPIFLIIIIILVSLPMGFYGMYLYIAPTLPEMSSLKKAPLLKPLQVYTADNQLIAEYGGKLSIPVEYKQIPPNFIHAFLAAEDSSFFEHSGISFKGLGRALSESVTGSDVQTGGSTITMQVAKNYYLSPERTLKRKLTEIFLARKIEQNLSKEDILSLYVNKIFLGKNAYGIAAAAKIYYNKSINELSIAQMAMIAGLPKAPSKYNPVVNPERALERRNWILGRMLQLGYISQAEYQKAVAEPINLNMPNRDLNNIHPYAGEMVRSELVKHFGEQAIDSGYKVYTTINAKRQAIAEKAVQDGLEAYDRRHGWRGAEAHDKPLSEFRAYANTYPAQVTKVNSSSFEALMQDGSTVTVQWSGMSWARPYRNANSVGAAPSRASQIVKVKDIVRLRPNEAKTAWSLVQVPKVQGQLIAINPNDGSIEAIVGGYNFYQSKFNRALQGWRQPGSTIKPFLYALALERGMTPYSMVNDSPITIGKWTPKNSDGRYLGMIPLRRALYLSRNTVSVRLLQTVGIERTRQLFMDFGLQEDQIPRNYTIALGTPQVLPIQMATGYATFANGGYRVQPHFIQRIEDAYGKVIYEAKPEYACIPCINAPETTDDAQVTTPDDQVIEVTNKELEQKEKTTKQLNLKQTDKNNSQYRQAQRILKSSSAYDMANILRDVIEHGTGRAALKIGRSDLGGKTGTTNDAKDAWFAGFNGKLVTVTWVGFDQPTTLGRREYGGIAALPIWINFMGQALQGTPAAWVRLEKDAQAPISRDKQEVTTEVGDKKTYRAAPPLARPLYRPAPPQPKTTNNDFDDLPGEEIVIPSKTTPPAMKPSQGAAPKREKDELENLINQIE
Procedure, shortened: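 Competitive equilibrium binding; reporter Bocillin-FL. PBP + inhibitor (titration) pre-incubated → Bocillin-FL, 15 min → gel filtration → fluorescence. EC50 from Hill fit of fraction bound vs [inhibitor].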

Compound	MIC (B. pseudomallei Bp82)	EC50 (A. baumannii PBP1a)
CN(CCN1CCN(C(=O)N[C@@H](C(=O)N[C@H]2Cc3ccc(F)c(C(=O)O)c3OB2O)c2cc(F)c(O)c(O)c2Cl)C(=O)C1=O)Cc1ccc(N)nc1 [Example 209, (R)-3-((R)-2-(4-(2-(((6-aminopyridin-3-yl)methyl)(methyl)amino)ethyl)-2,3-dioxopiperazine-1-carboxamido)-2-(2-chloro-5-fluoro-3,4-dihydroxyphenyl)acetamido)-7-fluoro-2-hydroxy-3,4-dihydro-2H-benzo[e][1,2]oxaborinine-8-carboxylic acid]	< 1 µg/mL	10 to 50 µM
CN(CCN1CCN(C(=O)NC(C(=O)N[C@H]2Cc3ccc(F)c(C(=O)O)c3OB2O)c2cc(F)c(O)c(O)c2Cl)C(=O)C1=O)S(=O)(=O)c1ccc(C(N)=O)cc1 (stereo partly drawn) [Example 223, (3R)-3-(2-(4-(2-((4-carbamoyl-N-methylphenyl)sulfonamido)ethyl)-2,3-dioxopiperazine-1-carboxamido)-2-(2-chloro-5-fluoro-3,4-dihydroxyphenyl)acetamido)-7-fluoro-2-hydroxy-3,4-dihydro-2H-benzo[e][1,2]oxaborinine-8-carboxylic acid]	< 1 µg/mL	< 10 µM
CN(CCN1CCN(C(=O)NC(C(=O)N[C@H]2Cc3ccc(F)c(C(=O)O)c3OB2O)c2cc(F)c(O)c(O)c2Cl)C(=O)C1=O)S(=O)(=O)c1cccc(C(N)=O)c1 (stereo partly drawn) [Example 224, (3R)-3-(2-(4-(2-((3-carbamoyl-N-methylphenyl)sulfonamido)ethyl)-2,3-dioxopiperazine-1-carboxamido)-2-(2-chloro-5-fluoro-3,4-dihydroxyphenyl)acetamido)-7-fluoro-2-hydroxy-3,4-dihydro-2H-benzo[e][1,2]oxaborinine-8-carboxylic acid]	< 1 µg/mL	< 10 µM
CN(CCN1CCN(C(=O)N[C@@H](C(=O)N[C@H]2Cc3ccc(F)c(C(=O)O)c3OB2O)c2cc(F)c(O)c(O)c2Cl)C(=O)C1=O)Cc1cccc(C(N)=O)c1 [Example 225, (R)-3-((R)-2-(4-(2-((3-carbamoylbenzyl)(methyl)amino)ethyl)-2,3-dioxopiperazine-1-carboxamido)-2-(2-chloro-5-fluoro-3,4-dihydroxyphenyl)acetamido)-7-fluoro-2-hydroxy-3,4-dihydro-2H-benzo[e][1,2]oxaborinine-8-carboxylic acid]	< 1 µg/mL	10 to 50 µM
CN(CCN1CCN(C(=O)N[C@@H](C(=O)N[C@H]2Cc3ccc(F)c(C(=O)O)c3OB2O)c2cc(F)c(O)c(O)c2Cl)C(=O)C1=O)Cc1ccc(C(N)=O)cc1 [Example 226, (R)-3-((R)-2-(4-(2-((4-carbamoylbenzyl)(methyl)amino)ethyl)-2,3-dioxopiperazine-1-carboxamido)-2-(2-chloro-5-fluoro-3,4-dihydroxyphenyl)acetamido)-7-fluoro-2-hydroxy-3,4-dihydro-2H-benzo[e][1,2]oxaborinine-8-carboxylic acid]	< 1 µg/mL	10 to 50 µM
O=C(O)c1c(F)ccc2c1OB(O)[C@@H](NC(=O)[C@H](NC(=O)N1CCN(CCNC(=O)[C@@H]3CCCN3)C(=O)C1=O)c1cc(F)c(O)c(O)c1Cl)C2 [Example 229, (R)-3-((R)-2-(2-chloro-5-fluoro-3,4-dihydroxyphenyl)-2-(2,3-dioxo-4-(2-((S)-pyrrolidine-2-carboxamido)ethyl)piperazine-1-carboxamido)acetamido)-7-fluoro-2-hydroxy-3,4-dihydro-2H-benzo[e][1,2]oxaborinine-8-carboxylic acid]	< 1 µg/mL	–
O=C(NCCN1CCN(C(=O)NC(C(=O)N[C@H]2Cc3ccc(F)c(C(=O)O)c3OB2O)c2cc(F)c(O)c(O)c2Cl)C1=O)c1ccncc1 (stereo partly drawn) [Example 245, (3R)-3-(2-(2-chloro-5-fluoro-3,4-dihydroxyphenyl)-2-(3-(2-(isonicotinamido)ethyl)-2-oxoimidazolidine-1-carboxamido)acetamido)-7-fluoro-2-hydroxy-3,4-dihydro-2H-benzo[e][1,2]oxaborinine-8-carboxylic acid]	< 1 µg/mL	–
O=C(NCCN1CCN(C(=O)NC(C(=O)N[C@H]2Cc3ccc(F)c(C(=O)O)c3OB2O)c2cc(F)c(O)c(O)c2Cl)C1=O)Nc1cccc(O)c1 (stereo partly drawn) [Example 249, (3R)-3-(2-(2-chloro-5-fluoro-3,4-dihydroxyphenyl)-2-(3-(2-(3-(3-hydroxyphenyl)ureido)ethyl)-2-oxoimidazolidine-1-carboxamido)acetamido)-7-fluoro-2-hydroxy-3,4-dihydro-2H-benzo[e][1,2]oxaborinine-8-carboxylic acid]	< 1 µg/mL	10 to 50 µM
O=C(NCCN1CCN(C(=O)NC(C(=O)N[C@H]2Cc3ccc(F)c(C(=O)O)c3OB2O)c2cc(F)c(O)c(O)c2Cl)C1=O)Nc1ccncc1 (stereo partly drawn) [Example 250, (3R)-3-(2-(2-chloro-5-fluoro-3,4-dihydroxyphenyl)-2-(2-oxo-3-(2-(3-(pyridin-4-yl)ureido)ethyl)imidazolidine-1-carboxamido)acetamido)-7-fluoro-2-hydroxy-3,4-dihydro-2H-benzo[e][1,2]oxaborinine-8-carboxylic acid]	< 1 µg/mL	–
O=C(NCCN1CCN(C(=O)NC(C(=O)N[C@H]2Cc3ccc(F)c(C(=O)O)c3OB2O)c2cc(F)c(O)c(O)c2Cl)C1=O)Nc1cccnc1 (stereo partly drawn) [Example 251, (3R)-3-(2-(2-chloro-5-fluoro-3,4-dihydroxyphenyl)-2-(2-oxo-3-(2-(3-(pyridin-3-yl)ureido)ethyl)imidazolidine-1-carboxamido)acetamido)-7-fluoro-2-hydroxy-3,4-dihydro-2H-benzo[e][1,2]oxaborinine-8-carboxylic acid]	< 1 µg/mL	–
O=C(NCCCN1CCN(C(=O)NC(C(=O)N[C@H]2Cc3ccc(F)c(C(=O)O)c3OB2O)c2cc(F)c(O)c(O)c2Cl)C1=O)c1ccncc1 (stereo partly drawn) [Example 256, (3R)-3-(2-(2-chloro-5-fluoro-3,4-dihydroxyphenyl)-2-(3-(3-(isonicotinamido)propyl)-2-oxoimidazolidine-1-carboxamido)acetamido)-7-fluoro-2-hydroxy-3,4-dihydro-2H-benzo[e][1,2]oxaborinine-8-carboxylic acid]	< 1 µg/mL	–
O=C(NCCCN1CCN(C(=O)NC(C(=O)N[C@H]2Cc3ccc(F)c(C(=O)O)c3OB2O)c2cc(F)c(O)c(O)c2Cl)C1=O)c1nccs1 (stereo partly drawn) [Example 257, (3R)-3-(2-(2-chloro-5-fluoro-3,4-dihydroxyphenyl)-2-(2-oxo-3-(3-(thiazole-2-carboxamido)propyl)imidazolidine-1-carboxamido)acetamido)-7-fluoro-2-hydroxy-3,4-dihydro-2H-benzo[e][1,2]oxaborinine-8-carboxylic acid]	< 1 µg/mL	–
O=C(NCCS(=O)(=O)N1CCN(C(=O)NC(C(=O)N[C@H]2Cc3ccc(F)c(C(=O)O)c3OB2O)c2cc(F)c(O)c(O)c2Cl)C1=O)c1cccnc1 (stereo partly drawn) [Example 262, (3R)-3-(2-(2-chloro-5-fluoro-3,4-dihydroxyphenyl)-2-(3-((2-(nicotinamido)ethyl)sulfonyl)-2-oxoimidazolidine-1-carboxamido)acetamido)-7-fluoro-2-hydroxy-3,4-dihydro-2H-benzo[e][1,2]oxaborinine-8-carboxylic acid]	< 1 µg/mL	–
O=C(NCCS(=O)(=O)N1CCN(C(=O)N[C@@H](C(=O)N[C@H]2Cc3ccc(F)c(C(=O)O)c3OB2O)c2cc(F)c(O)c(O)c2Cl)C1=O)c1nccs1 [Example 264, (R)-3-((R)-2-(2-chloro-5-fluoro-3,4-dihydroxyphenyl)-2-(2-oxo-3-((2-(thiazole-2-carboxamido)ethyl)sulfonyl)imidazolidine-1-carboxamido)acetamido)-7-fluoro-2-hydroxy-3,4-dihydro-2H-benzo[e][1,2]oxaborinine-8-carboxylic acid]	< 1 µg/mL	–
O=C(O)c1c(F)ccc2c1OB(O)[C@@H](NC(=O)C(NC(=O)N1CCN(S(=O)(=O)CCNC(=O)[C@@H]3CCCN3)C1=O)c1cc(F)c(O)c(O)c1Cl)C2 (stereo partly drawn) [Example 265, (3R)-3-(2-(2-chloro-5-fluoro-3,4-dihydroxyphenyl)-2-(2-oxo-3-((2-((S)-pyrrolidine-2-carboxamido)ethyl)sulfonyl)imidazolidine-1-carboxamido)acetamido)-7-fluoro-2-hydroxy-3,4-dihydro-2H-benzo[e][1,2]oxaborinine-8-carboxylic acid]	< 1 µg/mL	–
O=C(O)c1c(F)ccc2c1OB(O)[C@@H](NC(=O)C(NC(=O)N1CCN(S(=O)(=O)CCCNC(=O)[C@@H]3CCCN3)C1=O)c1cc(F)c(O)c(O)c1Cl)C2 (stereo partly drawn) [Example 275, (3R)-3-(2-(2-chloro-5-fluoro-3,4-dihydroxyphenyl)-2-(2-oxo-3-((3-((S)-pyrrolidine-2-carboxamido)propyl)sulfonyl)imidazolidine-1-carboxamido)acetamido)-7-fluoro-2-hydroxy-3,4-dihydro-2H-benzo[e][1,2]oxaborinine-8-carboxylic acid]	< 1 µg/mL	–
